Laboratory results from US12662688B2, “Site-selective deuteration of amino acids through dual protein catalysis” (Wisconsin Alumni Research Foundation, priority 2022, dated 2026).

Experiments:
DsaD [1] = target: T1, DsaD (Streptomyces scopuliridis, UniProt A0A0D5CCB2); experiment: H/D exchange of L-Ile with DsaD alone (steady-state kinetics); type: biochemical
Experimental: (§1) FIGS. 2A-2E. Steady-state kinetic analysis of H/D exchange by the Ile epimerization system. FIG. 2A. Steady-state kinetic analysis describing Cβ-deuteration^a of L-Ile under varied equivalents of partner enzyme DsaE. FIG. 2B. Steady-state kinetic analysis of Cβ-deuteration rates^a at a constant 1 mM L-Ile, measured against increasing equivalents of DsaE. FIG. 2C. Steady-state kinetic analysis of Cα-deuteration^a of L-Ile in the presence and absence of partner protein DsaE. FIG. 2D. Proposed mechanism of selective deuterium incorporation at Cα and Cβ catalyzed by dual protein catalysis. FIG. 2E. UV-visible spectrum of DsaD in the absence and presence of L-Ile.^a Measurement of initial rates was performed in duplicate at 24° C. […] Following quench with MeCN, crude reaction products were subjected to functionalization with Marfey's reagent (L-FDAA) to enable analysis by reverse-phase chromatography and quantification of isotope incorporation by mass spectrometry.
(§2) Kinetic analysis of biocatalytic L-Ile deuteration: Initial rates of α- or β-deuteration were obtained by means of end-point assay using the quantitation protocol for analytical scale reactions as described above. […] Michaelis constants (KM) for α- and β-deuteration of L-Ile were determined using the concentration range of 0.1-10 mM L-Ile using 3 μM DsaD. […]

DsaD/DsaE complex = DsaD/DsaE complex (Streptomyces scopuliridis, UniProt A0A0D5CCB2); experiment: Steady-state kinetic analysis of H/D exchange of L-Ile by DsaD with partner protein DsaE; type: biochemical
Experimental: FIGS. 2A-2E. Steady-state kinetic analysis of H/D exchange by the Ile epimerization system. FIG. 2A. Steady-state kinetic analysis describing Cβ-deuteration^a of L-Ile under varied equivalents of partner enzyme DsaE. FIG. 2B. Steady-state kinetic analysis of Cβ-deuteration rates^a at a constant 1 mM L-Ile, measured against increasing equivalents of DsaE. FIG. 2C. Steady-state kinetic analysis of Cα-deuteration^a of L-Ile in the presence and absence of partner protein DsaE. FIG. 2D. Proposed mechanism of selective deuterium incorporation at Cα and Cβ catalyzed by dual protein catalysis. FIG. 2E. UV-visible spectrum of DsaD in the absence and presence of L-Ile.^a Measurement of initial rates was performed in duplicate at 24° C. Conditions: 0.1-10 mM L-Ile, 3 μM DsaD, 50 mM sodium phosphate (pD 8.4), and 0.1 mM PLP in D2O (99.9%). Proteins were exchanged into a 50 mM sodium phosphate-D2O (pD 8.4) solution prior to reaction initiation to minimize proton contamination (<1% H2O). Following quench with MeCN, crude reaction products were subjected to functionalization with Marfey's reagent (L-FDAA) to enable analysis by reverse-phase chromatography and quantification of isotope incorporation by mass spectrometry.
(§3) Marfey's derivatization of analytical scale reactions: Derivatization of the resulting analytical scale product mixture (to increase overall signal and enable reverse phase chromatographic analysis) was achieved by treatment with Marfey's reagent^2 (1-fluoro-2-4-dinitrophenyl-5-L-alanine amide, L-FDAA) using the following protocol. 25 μL of quenched reaction mix (final amine concentration, 1.6 mM) was added to an Eppendorf tube with 50 μL of 15 mM NaHCO3 (final concentration, 5 mM) and 75 μL of 5 mM L-FDAA (final concentration, 2.5 mM). Derivatization reactions were carried out for 10-12 h before quenching with 150 μL of 60 mM HCl dissolved in acetonitrile. Final reaction analysis was carried out by UPLC-DAD-MS and quantitation as described below.
(§4) Quantitation of deuteration in analytical scale reactions: Deuteration reactions were analyzed by UPLC-DAD-MS with single ion recording (SIR) channels set to record a spectrum with the appropriate isotopic mass in positive mode. The area under the curve of recorded SIR peaks was obtained and normalized to account for natural isotopic abundance distributions (e.g. ^13C, ^15N, ^2H, ^34S, etc). Percent deuterium incorporation was calculated by the formula below. These measurements were carried out in an iterative fashion to measure Cα deuteration and Cβ deuteration.
Kinetic analysis of biocatalytic L-Ile deuteration: Initial rates of α- or β-deuteration were obtained by means of end-point assay using the quantitation protocol for analytical scale reactions as described above. All reagents were prepared in D2O (99.9% D) and protein stocks were dialyzed (3 exchanges over 3 h at 4° C.) into 50 mM sodium phosphate buffer dissolved in D2O (pD 8.4) using a slide-a-lyzer device with a 3,000 Da cutoff. Reactions were performed at 25° C. in 1 mL Eppendorf tubes. Michaelis constants (KM) for α- and β-deuteration of L-Ile were determined using the concentration range of 0.1-10 mM L-Ile using 3 μM DsaD. Partner protein (DsaE) concentrations were consistent within each experiment and separate experiments were performed using varied equivalents of partner protein (0-50 equiv). Initial velocities were measures in duplicate or triplicate for at least 6 different substrate concentrations for each set of conditions tested. Measurements of the impact of partner protein (DsaE) concentration on the initial rate of β-deuteration were carried out using 1 mM L-Ile, 3 μM DsaD and varying DsaE concentrations between 3 μM-600 μM (1-200 equiv). Under the minimal proton contamination conditions of this assay (99.9% D2O), Cα and Cβ deuteration are assumed to have occurred without back transfer to proton. The data were fit using the Michaelis-Menten equation implemented in Prism.

DsaD/E complex [2] = experiment: Analytical-scale Cα/Cβ H/D exchange with purified DsaD and DsaE; type: biochemical, Streptomyces scopuliridis; details: 1 mM Ile, 0.05 mol % DsaD and DsaE (1:1), D2O, 37° C., 8 h
DsaD/E complex [3] = experiment: Preparative-scale Cα/Cβ-deuteration with DsaD and DsaE clarified lysates in D2O; type: biochemical, Streptomyces scopuliridis
Experimental: (§5) FIG. 5. ^1H NMR analysis of site-selective deuteration of L-Leu. Reaction conditions: 20 mM L-Leu 2.5% v/v DsaD clarified lysate, 2.5% v/v DsaE clarified lysate (when needed), 50 mM sodium phosphate (pD 8.4), 0.1 mM PLP, D2O (99.9% D).
(§6) FIG. 8. Preparative-scale and site-selective deuteration of amino acids. Conditions: 10-20 mM amino acid, 2.5% v/v DsaD clarified lysate, 2.5% v/v DsaE clarified lysate, 50 mM sodium phosphate (pD 8.4), 0.1 mM PLP, D2O (99.9%).
(§7) General procedure for milligram-scale biocatalytic deuteration: A 4-dram scintillation vial was charged with amino acid (10-20 mM final concentration), Na3PO4 buffer pD 8.4 (50 mM final concentration), PLP (100 μM final concentration), DsaD clarified cell lysate (2.5% v/v), DsaE clarified cell lysate (if applicable) (2.5% v/v), and D2O (or dH2O) to the appropriate final volume. The reaction vessel was placed in an incubator at 37° C. for 16 h. Reaction progress was monitored by UPLC-MS. After reaction completion, the reaction mixture was quenched with an equivalent volume of acetone and centrifuged (4,000 rpm, 10 min) to remove denatured protein. Supernatant was transferred to a clean beaker, the decanted supernatant was concentrated to remove acetone by rotary evaporation and loaded onto a preparative reverse-phase C18 column pre-equilibrated with water. Purification was performed via gradient elution on an Isolera One Flash Purification system (Biotage). Fractions bearing product (confirmed by UPLC-MS sampling of fraction tubes) were pooled and dried by rotary evaporation. The product was then resuspended in a minimal quantity of water, transferred to a pre-weighed 20 mL vial, frozen, and lyophilized.

DsaD [4] = target: T1, DsaD; experiment: UV-vis spectroscopy of amino acid binding to DsaD; details: 20 μM DsaD, pH 8.0, 25° C.
Experimental: UV-Vis Spectroscopy: Data were collected between 600 and 300 nm on a UV-2600 Shimadzu spectrophotometer (Shimadzu, Kyoto, Japan) with a semi-micro quartz cuvette (Starna Cells, Atascadero, California, USA) at 25° C. DsaD stock solutions were diluted to 20 μM in 50 mM sodium phosphate pH 8.0. For observation of substrate binding, amino acids were added at concentrations ranging from 2.5-10 mM. Spectra from 600-300 nm were collected after a 2-minute incubation period. Amino acid stocks were prepared as 100 mM stocks in deionized water.

DsaD [5] = target: T1, DsaD; experiment: Preparative-scale Cα-deuteration with DsaD clarified lysate in D2O; type: biochemical; details: DsaD lysate only
Experimental: as §5, §6
as §7, with “Supernatant was transferred to a clean beaker, the decanted supernatant was concentrated to remove acetone by rotary evaporation and loaded onto a preparative reverse-phase C18 column pre-equilibrated with water. Purification was performed via gradient elution on an Isolera One Flash Purification system (Biotage). Fractions bearing product (confirmed by UPLC-MS sampling of fraction tubes) were pooled and dried by rotary evaporation.” left out

DsaD/E system = experiment: Two-step Cα/Cβ deuteration then Cα deuterium washout with DsaD in H2O; type: biochemical, Streptomyces scopuliridis; details: for deuterium incorporation at Cβ: lower substrate loading (10 mM), after Cα washout
Experimental: as §7
An initial reaction was performed with DsaD and DsaE to produce Cα,Cβ-deuterated L-Leu-2,3,3-d3 (25). Following reaction quenching with acetone, centrifugation to remove protein products, and removal of acetone and D2O via rotary evaporation, the dry crude product mixture was subjected to standard reaction conditions with DsaD in water. This reaction led to washout of the Cα deuterium, providing exclusively Cβ-deuterated L-Leu-3,3-d2 (44) with high levels of deuterium incorporation at Cβ (FIG. 5, 86% D incorporation and 98% ee). The site of H/D exchange in these reactions is dictated by the presence or absence of DsaE from the reaction conditions, enabling control of amino acid deuteration patterns.
We performed Cα/Cβ deuteration on a panel of amino acids, quenched the reactions and resubjected the crude product to Cα deuterium washout with DsaD in H2O. […]

DsaD/E complex [6] = experiment: Analytical-scale Cα/Cβ H/D exchange with purified DsaD and DsaE; type: biochemical, Streptomyces scopuliridis; details: 10 mM substrate, 5 μM DsaD, 50 μM DsaE (10:1), 37° C., 8 h
Experimental: FIGS. 3A-3C. Optimization of H/D exchange reactions and evaluation of the substrate scope. FIG. 3A. Optimization of Cβ-deuteration by increasing equivalents of partner protein DsaE. FIG. 3B. Evaluation of substrate scope of dual-protein-catalyzed Cα/Cβ deuteration under optimized conditions. FIG. 3C. UV-visible spectroscopy used to evaluate non-native substrate binding to DsaD. Reaction conditions: 10 mM amino acid substrate, 50 μM DsaE, 5 μM DsaD (10:1), 50 mM sodium phosphate (pD 8.4), 0.1 mM PLP, D2O, 37° C., 8 h. Reactions performed in duplicate, and percentage isotope incorporation is reported as the average of the replicates.
General procedure analytical scale deuteration reactions: α/β deuteration reactions were performed as follows. A 1 mL Eppendorf tube was charged with amino acid (10-20 mM final concentration), Na3PO4 buffer pD 8.4 (50 mM final concentration), PLP (100 μM final concentration), purified enzymes or appropriate lysate and D2O and to the appropriate final volume (typically 50 μL). Reactions were carried out at 37° C. for 8 h and quenched by the addition of 3 volumes of acetonitrile. Precipitated biomolecules were pelleted by centrifugation (16,000×g, 10 min) and samples were processed as described below.
as §3, §4

[7] = substrate: CC[C@H](C)[C@H](N)C(=O)O; experiment: H/D exchange of L-Ile with DsaD alone (steady-state kinetics); type: biochemical, Streptomyces scopuliridis; details: other: DsaD alone; pH 8.4
Experimental: as §1, §2

[8] = lower substrate loading (10 mM)

Chain of DsaD/DsaE complex (A0A0D5CBB6 entry or part of it, one chain of several): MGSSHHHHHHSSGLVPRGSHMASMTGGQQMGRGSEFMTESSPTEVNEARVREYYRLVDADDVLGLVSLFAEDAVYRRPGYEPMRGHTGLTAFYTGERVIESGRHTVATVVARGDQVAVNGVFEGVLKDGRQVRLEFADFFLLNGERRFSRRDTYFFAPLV

`CC[C@H](C)[C@H](N)C(=O)O` [Ile, isoleucine] was tested, and the “kcat of Cα exchange” value (DsaD [1]; DsaD alone) was 1.04 ± 0.04 s⁻¹, the “H/D exchange with just DsaD” value (DsaD [1]; excluding partner protein DsaE) was “a single H/D exchange event” and the “change of observed kcat or KM for Cα-deuteration” value (DsaD/DsaE complex; 150 μM DsaE (50:1 DsaE:DsaD)) was “did not significantly impact”. The “change of kcat of Cβ-deuteration” value (DsaD/DsaE complex; 5 equiv. of DsaE (5:1 DsaE:DsaD) vs one equivalent) was “did not significantly change”, the “decrease in observed KM of Cβ-deuteration” value (DsaD/DsaE complex; 5 equiv. vs one equivalent of DsaE) was 11 fold and the “increase in kcat of Cβ-deuteration” value (DsaD/DsaE complex; 50 equiv. of DsaE (50:1 DsaE:DsaD)) was ~4 fold. For the same molecule, the “kcat of Cβ-deuteration” value (DsaD/DsaE complex; one equivalent of DsaE, 3 μM DsaD, D2O pD 8.4) was 0.07 ± 0.007 s⁻¹, the “kcat of Cα-deuteration” value (DsaD/DsaE complex; with DsaE bound) was 0.75 ± 0.01 s⁻¹ and the “major product of H/D exchange” value (DsaD/E complex [2]) was 1:1 mixture of d2-2,3-L-Ile and d2-2,3-L-allo-Ile. For the same molecule, the “deuteration at Cα” value (DsaD/E complex [3]; >600 mg scale) was 95%, the “deuteration at Cβ” value (DsaD/E complex [3]; >600 mg scale) was 93% and the “substrate binding to DsaD by UV-vis” value (DsaD [4]) was “appearance of a new absorbance band at 328 nm”.

For `[2H][C@](N)(CC(C)C)C(=O)O` [L-Leu-2-d], the “D incorporation at Cα” value (DsaD [5]) was 95% and the ee (DsaD [5]) was > 99 % ee.

For `[2H]C([2H])(C(C)C)[C@H](N)C(=O)O` [L-Leu-3,3-d2], the “D incorporation at Cβ” value (DsaD/E system; after Cα washout with DsaD in water) was 86%.

`N[C@@H](Cc1ccccc1)C(=O)O` [Phe, phenylalanine] was tested, and the “D-incorporation at Cα” value (DsaD/E complex [6]) was “high Cα deuteration”, the “D-incorporation at Cβ” value (DsaD/E complex [6]) was 67% and the “deuterium incorporation at Cβ” value (DsaD/E system) was 91%.

`N[C@@H](Cc1ccc(O)cc1)C(=O)O` [Tyr, tyrosine] was tested, and the “deuterium incorporation at Cα” value (DsaD/E complex [3]; [8]) was 95%, the “deuterium incorporation at Cβ” value (DsaD/E complex [3]; [8]) was 49% and the “D-incorporation at Cα” value (DsaD/E complex [6]) was 99%. For the same molecule, the “D-incorporation at Cβ” value (DsaD/E complex [6]) was 27% and the “deuterium incorporation at Cβ” value (DsaD/E system) was 40%.

B1: DsaD (Streptomyces scopuliridis) (protein)
chain: MGSSHHHHHHSSGLVPRGSHMASMTGGQQMGRGSEFMHIVTTPVARPLTAQERTERCAAPAFGTAFTEHMVSARWNPEQGWHDAELVPYGPLLLDPATVGLHYGQVVFEGLKAFRSHTGEVAVFRPDAHAERMRASARRLMMPEPPEELFLAAVDALVAQDQEWIPDDPGMSLYLRPILFASERTLALRPAREYRFLLVAFITEGYFGPAQRPVRVWVTDEYSRAAAGGTGAAKCAGNYAGSLLAQEEAQRKGCDQVVWLDPVERNWVEEMGGMNLFFVYEAGGSARLVTPPLTGSLLPGVTRDALLRLAPTLGVPVSEAPLSLEQWRADCASGAITEVFACGTAARISPVNEVSTKDGSWTIGAGAPAEGGVAAGEVTGRLSAALFGIQRGELPDSHSWMRPVSPARQSAIT
Molecule B1 has a Km [7] of 700 ± 100 µM.
